From patent US10392391B2 (Vertex Pharmaceuticals Incorporated, priority 2012, dated 2019)
Where two headings read alike, the source gives them in different places.

Biological target: ATR kinase (full-length ATR) (Homo sapiens (Human), UniProt Q13535)
Experiment: ATR inhibition assay (radioactive-phosphate incorporation)
Format: biochemical
Method in brief: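 Ki(app) was fitted by non-linear regression to background-corrected initial rates. Full-length ATR (5 nM) phosphorylated 800 μM peptide using 10 μM [γ-33P]ATP at 25° C in Tris/HCl pH 7.5 buffer with MgCl2, DTT and 7% DMSO. After 10-minute compound pre-incubation and 24-hour reaction, phosphocellulose filters were scintillation counted.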

[1] = Ki(app), 5 nM full-length ATR, 10 μM ATP, 25° C.

Sequence of ATR kinase (full-length ATR) (Q13535 whole entry): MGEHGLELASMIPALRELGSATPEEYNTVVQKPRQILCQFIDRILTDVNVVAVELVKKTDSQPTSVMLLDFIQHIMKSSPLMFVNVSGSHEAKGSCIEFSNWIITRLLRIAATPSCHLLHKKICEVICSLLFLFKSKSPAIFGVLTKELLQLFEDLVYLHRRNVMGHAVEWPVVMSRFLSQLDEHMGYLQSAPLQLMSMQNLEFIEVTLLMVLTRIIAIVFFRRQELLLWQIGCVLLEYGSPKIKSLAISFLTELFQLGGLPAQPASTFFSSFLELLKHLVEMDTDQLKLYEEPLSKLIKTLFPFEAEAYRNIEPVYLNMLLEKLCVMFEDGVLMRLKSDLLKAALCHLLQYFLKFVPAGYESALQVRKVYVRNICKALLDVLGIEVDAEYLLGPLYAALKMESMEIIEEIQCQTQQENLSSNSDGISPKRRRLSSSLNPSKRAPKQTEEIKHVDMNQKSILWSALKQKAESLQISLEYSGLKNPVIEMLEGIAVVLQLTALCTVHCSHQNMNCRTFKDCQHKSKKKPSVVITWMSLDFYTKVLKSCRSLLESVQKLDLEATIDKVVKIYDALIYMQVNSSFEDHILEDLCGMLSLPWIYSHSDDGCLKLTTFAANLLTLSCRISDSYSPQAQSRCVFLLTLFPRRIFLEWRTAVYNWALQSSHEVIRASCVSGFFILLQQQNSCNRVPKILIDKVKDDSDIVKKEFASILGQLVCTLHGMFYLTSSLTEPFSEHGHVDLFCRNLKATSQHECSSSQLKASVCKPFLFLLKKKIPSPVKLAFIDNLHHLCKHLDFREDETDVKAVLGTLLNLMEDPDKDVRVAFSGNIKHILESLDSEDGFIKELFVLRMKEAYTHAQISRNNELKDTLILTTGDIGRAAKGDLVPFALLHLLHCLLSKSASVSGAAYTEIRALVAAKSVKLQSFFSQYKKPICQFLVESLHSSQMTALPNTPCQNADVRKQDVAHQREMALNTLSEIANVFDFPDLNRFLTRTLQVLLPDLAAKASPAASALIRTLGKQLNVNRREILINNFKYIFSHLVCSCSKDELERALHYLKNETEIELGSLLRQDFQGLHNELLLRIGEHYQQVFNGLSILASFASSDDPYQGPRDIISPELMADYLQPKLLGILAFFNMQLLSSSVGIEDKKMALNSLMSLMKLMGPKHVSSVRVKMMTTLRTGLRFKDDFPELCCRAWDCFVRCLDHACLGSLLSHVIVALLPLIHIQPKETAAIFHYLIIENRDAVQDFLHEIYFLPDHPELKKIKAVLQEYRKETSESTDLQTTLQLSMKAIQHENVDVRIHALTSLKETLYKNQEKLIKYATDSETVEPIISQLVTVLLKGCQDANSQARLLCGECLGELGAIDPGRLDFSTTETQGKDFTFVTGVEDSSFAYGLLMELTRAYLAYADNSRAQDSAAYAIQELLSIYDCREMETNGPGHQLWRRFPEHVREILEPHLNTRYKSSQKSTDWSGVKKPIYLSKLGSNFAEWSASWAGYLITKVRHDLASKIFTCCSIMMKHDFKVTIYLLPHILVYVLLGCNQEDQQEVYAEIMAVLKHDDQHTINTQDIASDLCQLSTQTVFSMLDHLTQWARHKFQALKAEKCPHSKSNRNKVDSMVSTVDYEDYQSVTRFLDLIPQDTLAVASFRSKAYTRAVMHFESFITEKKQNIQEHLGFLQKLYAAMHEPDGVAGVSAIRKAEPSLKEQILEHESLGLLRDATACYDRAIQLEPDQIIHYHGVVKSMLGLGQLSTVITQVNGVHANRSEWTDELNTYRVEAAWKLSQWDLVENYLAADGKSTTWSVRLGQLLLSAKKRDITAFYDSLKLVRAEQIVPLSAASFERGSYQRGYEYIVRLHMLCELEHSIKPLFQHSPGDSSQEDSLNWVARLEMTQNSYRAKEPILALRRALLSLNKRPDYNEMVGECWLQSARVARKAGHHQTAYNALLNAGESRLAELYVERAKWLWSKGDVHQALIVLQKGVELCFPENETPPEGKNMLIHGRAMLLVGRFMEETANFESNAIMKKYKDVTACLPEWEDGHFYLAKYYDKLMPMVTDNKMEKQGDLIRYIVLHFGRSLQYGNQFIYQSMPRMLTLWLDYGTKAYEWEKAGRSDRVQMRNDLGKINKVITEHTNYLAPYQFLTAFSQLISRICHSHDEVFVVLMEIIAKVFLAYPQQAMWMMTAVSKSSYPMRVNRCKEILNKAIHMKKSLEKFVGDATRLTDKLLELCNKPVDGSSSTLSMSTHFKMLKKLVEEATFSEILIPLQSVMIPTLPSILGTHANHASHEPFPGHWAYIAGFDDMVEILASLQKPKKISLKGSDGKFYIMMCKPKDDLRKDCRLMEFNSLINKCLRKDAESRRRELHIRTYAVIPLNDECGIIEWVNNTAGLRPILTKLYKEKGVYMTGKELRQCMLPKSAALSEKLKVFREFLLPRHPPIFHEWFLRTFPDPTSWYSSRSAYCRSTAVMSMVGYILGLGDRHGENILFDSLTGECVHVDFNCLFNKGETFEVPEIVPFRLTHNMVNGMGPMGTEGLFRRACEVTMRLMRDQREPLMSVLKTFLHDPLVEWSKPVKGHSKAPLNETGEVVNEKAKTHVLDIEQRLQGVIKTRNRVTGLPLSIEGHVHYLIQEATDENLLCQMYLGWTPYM

| Ki [1] | Ki | SMILES |
| --- | --- | --- |
| < 0.01 µM | – | CN1CCN(c2ccncc2NC(=O)c2c(N)nn3cc(CC#N)cnc23)CC1 [I-N-82, 2-amino-6-(cyanomethyl)-N-(4-(4-methylpiperazin-1-yl)pyridin-3-yl)pyrazolo[1,5-a]pyrimidine-3-carboxamide] |
| 0.01 to 1 µM | – | Nc1nn2cc(F)cnc2c1C(=O)Nc1cncc(F)c1N1CCN2C(=O)CCC[C@H]2C1 [I-N-279, (S)-2-amino-6-fluoro-N-(5-fluoro-4-(6-oxohexahydro-1H-pyrido[1,2-a]pyrazin-2(6H)-yl)pyridin-3-yl)pyrazolo[1,5-a]pyrimidine-3-carboxamide] |
| – | 1 to 5 µM | CC(C)(C#N)c1cnc2c(C(=O)Nc3cnccc3N3CCN(C4COC4)CC3)c(N)nn2c1 [I-N-142, 2-amino-6-(2-cyanopropan-2-yl)-N-(4-(4-(oxetan-3-yl)piperazin-1-yl)pyridin-3-yl)pyrazolo[1,5-a]pyrimidine-3-carboxamide] |
| 0.01 to 1 µM | – | CN1CC[C@H](Oc2ccncc2NC(=O)c2c(N)nn3cc(F)cnc23)C1 [I-O-1, (S)-2-amino-6-fluoro-N-(4-((1-methylpyrrolidin-3-yl)oxy)pyridin-3-yl)pyrazolo[1,5-a]pyrimidine-3-carboxamide] |
| 0.01 to 1 µM | – | Nc1nn2cc(F)cnc2c1C(=O)Nc1cncc(F)c1N1CCC(C(=O)N2CC(N3CCC3)C2)CC1 [I-G-49, N-(4-(4-([1,3′-biazetidine]-1′-carbonyl)piperidin-1-yl)-5-fluoropyridin-3-yl)-2-amino-6-fluoropyrazolo[1,5-a]pyrimidine-3-carboxamide] |
| 0.01 to 1 µM | – | Nc1nn2cc(Cl)cnc2c1C(=O)Nc1cnccc1N1CCC(N2CCC2)CC1 [I-N-93, 2-amino-N-(4-(4-(azetidin-1-yl)piperidin-1-yl)pyridin-3-yl)-6-chloropyrazolo[1,5-a]pyrimidine-3-carboxamide] |
| 0.01 to 1 µM | – | CC1CN(c2ccncc2NC(=O)c2c(N)nn3cc(Cl)cnc23)CCN1C (stereo not shown) [I-N-54, 2-amino-6-chloro-N-(4-(3,4-dimethylpiperazin-1-yl)pyridin-3-yl)pyrazolo[1,5-a]pyrimidine-3-carboxamide] |
| 0.01 to 1 µM | – | Nc1nn2cc(F)cnc2c1C(=O)Nc1cncc(F)c1N1CCC(C(=O)N2CC3(COC3)C2)CC1 [I-G-72, N-(4-(4-(2-oxa-6-azaspiro[3.3]heptane-6-carbonyl)piperidin-1-yl)-5-fluoropyridin-3-yl)-2-amino-6-fluoropyrazolo[1,5-a]pyrimidine-3-carboxamide] |
| 0.01 to 1 µM | – | COCCn1cncc1-c1ccncc1NC(=O)c1c(N)nn2cc(F)cnc12 [I-C-83, 2-amino-6-fluoro-N-(4-(1-(2-methoxyethyl)-1H-imidazol-5-yl)pyridin-3-yl)pyrazolo[1,5-a]pyrimidine-3-carboxamide] |
| 0.01 to 1 µM | – | Nc1nn2cc(F)cnc2c1C(=O)Nc1cncc(Cl)c1N1CCNCC1 [I-N-126, 2-amino-N-(5-chloro-4-(piperazin-1-yl)pyridin-3-yl)-6-fluoropyrazolo[1,5-a]pyrimidine-3-carboxamide] |
| 0.01 to 1 µM | – | CN1CCC(c2ccncc2NC(=O)c2c(N)nn3cc(F)cnc23)CC1=O (stereo not shown) [I-C-73, 2-amino-6-fluoro-N-(4-(1-methyl-2-oxopiperidin-4-yl)pyridin-3-yl)pyrazolo[1,5-a]pyrimidine-3-carboxamide] |
| 0.01 to 1 µM | – | COCCN1CCC[C@H](Oc2ccncc2NC(=O)c2c(N)nn3cc(Cl)cnc23)C1 [I-O-67, (S)-2-amino-6-chloro-N-(4-((1-(2-methoxyethyl)piperidin-3-yl)oxy)pyridin-3-yl)pyrazolo[1,5-a]pyrimidine-3-carboxamide] |
| 0.01 to 1 µM | – | Cc1ccc(-c2ccncc2NC(=O)c2c(N)nn3cc(F)cnc23)cn1 [I-C-22, 2-amino-6-fluoro-N-(6-methyl-[3,4′-bipyridin]-3′-yl)pyrazolo[1,5-a]pyrimidine-3-carboxamide] |
| 0.01 to 1 µM | – | CN1CCN(c2ccc(-c3ccncc3NC(=O)c3c(N)nn4cc(F)cnc34)cn2)CC1 [I-C-21, 2-amino-6-fluoro-N-(6-(4-methylpiperazin-1-yl)-[3,4′-bipyridin]-3′-yl)pyrazolo[1,5-a]pyrimidine-3-carboxamide] |
| 0.01 to 1 µM | – | Cc1ncn(-c2ccncc2NC(=O)c2c(N)nn3cc(F)cnc23)n1 [I-N-161, 2-amino-6-fluoro-N-(4-(3-methyl-1H-1,2,4-triazol-1-yl)pyridin-3-yl)pyrazolo[1,5-a]pyrimidine-3-carboxamide] |
| 0.01 to 1 µM | – | Nc1nn2cc(F)cnc2c1C(=O)Nc1cnccc1N1CCC(C(=O)N2CCCC2)CC1 [I-G-83, 2-amino-6-fluoro-N-(4-(4-(pyrrolidine-1-carbonyl)piperidin-1-yl)pyridin-3-yl)pyrazolo[1,5-a]pyrimidine-3-carboxamide] |
| 0.01 to 1 µM | – | CC(C)(C)NC(=O)C1CCN(c2c(F)cncc2NC(=O)c2c(N)nn3cc(F)cnc23)CC1 [I-G-19, 2-amino-N-(4-(4-(tert-butylcarbamoyl)piperidin-1-yl)-5-fluoropyridin-3-yl)-6-fluoropyrazolo[1,5-a]pyrimidine-3-carboxamide] |

| Ki [1] | Ki | SMILES |
| --- | --- | --- |
| 0.01 to 1 µM | – | Cc1nc(F)ccc1-c1ccncc1NC(=O)c1c(N)nn2cc(F)cnc12 [I-C-34, 2-amino-6-fluoro-N-(6-fluoro-2-methyl-[3,4′-bipyridin]-3′-yl)pyrazolo[1,5-a]pyrimidine-3-carboxamide] |
| 0.01 to 1 µM | – | CN1CCN(C(=O)C2CCN(c3c(F)cncc3NC(=O)c3c(N)nn4cc(Cl)cnc34)CC2)CC1 [I-G-5, 2-amino-6-chloro-N-(5-fluoro-4-(4-(4-methylpiperazine-1-carbonyl)piperidin-1-yl)pyridin-3-yl)pyrazolo[1,5-a]pyrimidine-3-carboxamide] |
| 0.01 to 1 µM | – | CCC(C#N)c1cnc2c(C(=O)Nc3cnccc3OC)c(N)nn2c1 (stereo not shown) [I-O-20, 2-amino-6-(1-cyanopropyl)-N-(4-methoxypyridin-3-yl)pyrazolo[1,5-a]pyrimidine-3-carboxamide] |
| 0.01 to 1 µM | – | COC1(C)CN(C(=O)C2CCN(c3ccncc3NC(=O)c3c(N)nn4cc(F)cnc34)CC2)C1 [I-G-79, 2-amino-6-fluoro-N-(4-(4-(3-methoxy-3-methylazetidine-1-carbonyl)piperidin-1-yl)pyridin-3-yl)pyrazolo[1,5-a]pyrimidine-3-carboxamide] |
| 0.01 to 1 µM | – | Nc1nn2cc(F)cnc2c1C(=O)Nc1cncc(C2CC2)c1N1CCN(C2COC2)CC1 [I-N-32, 2-amino-N-(5-cyclopropyl-4-(4-(oxetan-3-yl)piperazin-1-yl)pyridin-3-yl)-6-fluoropyrazolo[1,5-a]pyrimidine-3-carboxamide] |
| 0.01 to 1 µM | – | Nc1nn2cc(F)cnc2c1C(=O)Nc1cnccc1N1CCC(C(=O)N2CCOCC2)CC1 [I-G-85, 2-amino-6-fluoro-N-(4-(4-(morpholine-4-carbonyl)piperidin-1-yl)pyridin-3-yl)pyrazolo[1,5-a]pyrimidine-3-carboxamide] |
| 0.01 to 1 µM | – | Nc1nn2cc(Cl)cnc2c1C(=O)Nc1cnccc1O[C@H]1CCCNC1 [I-O-74, (S)-2-amino-6-chloro-N-(4-(piperidin-3-yloxy)pyridin-3-yl)pyrazolo[1,5-a]pyrimidine-3-carboxamide] |
| 0.01 to 1 µM | – | Nc1nn2cc(F)cnc2c1C(=O)Nc1cnccc1C1CCN(C(=O)C2CC2)CC1 [I-C-70, 2-amino-N-(4-(1-(cyclopropanecarbonyl)piperidin-4-yl)pyridin-3-yl)-6-fluoropyrazolo[1,5-a]pyrimidine-3-carboxamide] |
| 0.01 to 1 µM | – | N#CC1CN(C(=O)C2CCN(c3c(F)cncc3NC(=O)c3c(N)nn4cc(F)cnc34)CC2)C1 [I-G-76, 2-amino-N-(4-(4-(3-cyanoazetidine-1-carbonyl)piperidin-1-yl)-5-fluoropyridin-3-yl)-6-fluoropyrazolo[1,5-a]pyrimidine-3-carboxamide] |
| 0.01 to 1 µM | – | Nc1nn2cc(F)cnc2c1C(=O)Nc1cncc(F)c1N1CCC(C(=O)NC2COC2)CC1 [I-G-37, 2-amino-6-fluoro-N-(5-fluoro-4-(4-(oxetan-3-ylcarbamoyl)piperidin-1-yl)pyridin-3-yl)pyrazolo[1,5-a]pyrimidine-3-carboxamide] |
| 0.01 to 1 µM | – | CS(=O)(=O)C1CN(C(=O)C2CCN(c3ccncc3NC(=O)c3c(N)nn4cc(F)cnc34)CC2)C1 [I-G-89, 2-amino-6-fluoro-N-(4-(4-(3-(methylsulfonyl)azetidine-1-carbonyl)piperidin-1-yl)pyridin-3-yl)pyrazolo[1,5-a]pyrimidine-3-carboxamide] |
| 0.01 to 1 µM | – | Nc1nn2cc(F)cnc2c1C(=O)Nc1cnccc1N1CCC(C(=O)N2CCC3(COC3)C2)CC1 [I-G-84, N-(4-(4-(2-oxa-6-azaspiro[3.4]octane-6-carbonyl)piperidin-1-yl)pyridin-3-yl)-2-amino-6-fluoropyrazolo[1,5-a]pyrimidine-3-carboxamide] |
| 0.01 to 1 µM | – | Nc1nn2cc(F)cnc2c1C(=O)Nc1cncc(F)c1N1CCC(C(=O)N2CCNC3CC32)CC1 (stereo not shown) [I-G-62, N-(4-(4-(2,5-diazabicyclo[4.1.0]heptane-2-carbonyl)piperidin-1-yl)-5-fluoropyridin-3-yl)-2-amino-6-fluoropyrazolo[1,5-a]pyrimidine-3-carboxamide] |
| 0.01 to 1 µM | – | Cc1ccncc1NC(=O)c1c(N)nn2cc(F)cnc12 [I-C-4, 2-amino-6-fluoro-N-(4-methylpyridin-3-yl)pyrazolo[1,5-a]pyrimidine-3-carboxamide] |
| 0.01 to 1 µM | – | Nc1nn2cc(F)cnc2c1C(=O)Nc1cncc(F)c1N1CCN(C(=O)C2CC3CCCCN3C2)CC1 (stereo not shown) [I-N-203, 2-amino-6-fluoro-N-(5-fluoro-4-(4-(octahydroindolizine-2-carbonyl)piperazin-1-yl)pyridin-3-yl)pyrazolo[1,5-a]pyrimidine-3-carboxamide] |
| 0.01 to 1 µM | – | CN1CCN(C(=O)C2CCN(c3ccncc3NC(=O)c3c(N)nn4cc(F)cnc34)CC2)CC1 [I-G-1, 2-amino-6-fluoro-N-(4-(4-(4-methylpiperazine-1-carbonyl)piperidin-1-yl)pyridin-3-yl)pyrazolo[1,5-a]pyrimidine-3-carboxamide] |
| 0.01 to 1 µM | – | Cc1cccnc1-c1ccncc1NC(=O)c1c(N)nn2cc(F)cnc12 [I-C-36, 2-amino-6-fluoro-N-(3-methyl-[2,4′-bipyridin]-3′-yl)pyrazolo[1,5-a]pyrimidine-3-carboxamide] |
